# Data: ChEMBL document CHEMBL5303766, “Data for DCP probe FHT-2344” (2022)
# Tests used:
# [1] = target: STE20/SPS1-related proline-alanine-rich protein kinase (Homo sapiens) (UniProt Q9UEW8); assay: STK39 SGC Tm panel (DSF); details: for ΔTm: Compound concentration 10.0 uM
# [2] = target: Bromodomain-containing protein 4 (Homo sapiens) (UniProt O60885); assay: BRD4 SGC Tm panel (DSF); details: for ΔTm: Compound concentration 10.0 uM
# [3] = target: Kappa-type opioid receptor (Homo sapiens) (UniProt P41145); details: Compound concentration 10.0 uM
# [4] = target: 5-hydroxytryptamine receptor 1B (Homo sapiens) (UniProt P28222); details: Compound concentration 10.0 uM
# [5] = target: T1, Dual specificity protein kinase TTK (Homo sapiens) (UniProt P33981); assay: TTK SGC Tm panel (DSF); details: for ΔTm: Compound concentration 10.0 uM
# T1 sequence (whole entry): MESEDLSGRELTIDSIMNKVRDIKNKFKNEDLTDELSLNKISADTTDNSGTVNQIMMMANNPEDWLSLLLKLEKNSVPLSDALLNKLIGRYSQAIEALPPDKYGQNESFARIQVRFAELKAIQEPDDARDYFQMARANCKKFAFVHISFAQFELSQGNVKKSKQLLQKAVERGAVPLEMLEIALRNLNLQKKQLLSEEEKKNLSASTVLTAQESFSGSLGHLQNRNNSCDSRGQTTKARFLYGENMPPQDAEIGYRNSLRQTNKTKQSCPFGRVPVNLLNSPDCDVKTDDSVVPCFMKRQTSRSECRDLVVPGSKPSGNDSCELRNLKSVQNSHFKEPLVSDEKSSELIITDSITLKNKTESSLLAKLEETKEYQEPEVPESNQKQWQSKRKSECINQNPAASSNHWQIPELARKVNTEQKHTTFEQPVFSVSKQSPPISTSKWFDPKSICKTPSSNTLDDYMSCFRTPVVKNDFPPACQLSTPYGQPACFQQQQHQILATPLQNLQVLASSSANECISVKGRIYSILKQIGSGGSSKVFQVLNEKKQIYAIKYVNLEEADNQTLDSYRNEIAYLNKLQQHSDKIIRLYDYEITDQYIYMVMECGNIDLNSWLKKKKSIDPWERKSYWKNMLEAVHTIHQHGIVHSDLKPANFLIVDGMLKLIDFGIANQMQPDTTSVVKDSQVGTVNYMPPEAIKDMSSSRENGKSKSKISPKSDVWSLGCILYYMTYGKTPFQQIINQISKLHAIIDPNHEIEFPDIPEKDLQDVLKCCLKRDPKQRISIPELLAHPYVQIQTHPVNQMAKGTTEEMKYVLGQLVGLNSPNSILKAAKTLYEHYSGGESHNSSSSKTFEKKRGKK
# [6] = target: Mitogen-activated protein kinase 10 (Homo sapiens) (UniProt P53779); assay: MAPK10 SGC Tm panel (DSF); details: for ΔTm: Compound concentration 10.0 uM
# [7] = target: Dual specificity tyrosine-phosphorylation-regulated kinase 1A (Homo sapiens) (UniProt Q13627); assay: DYRK1A SGC Tm panel (DSF); details: for ΔTm: Compound concentration 10.0 uM
# [8] = target: Ephrin type-A receptor 2 (Homo sapiens) (UniProt P29317); assay: EPHA2 SGC Tm panel (DSF); details: for ΔTm: Compound concentration 10.0 uM
# [9] = target: Muscarinic acetylcholine receptor M2 (Homo sapiens) (UniProt P08172); details: Compound concentration 10.0 uM
# [10] = target: Mitogen-activated protein kinase 8 (Homo sapiens) (UniProt P45983); assay: MAPK8 SGC Tm panel (DSF); details: for ΔTm: Compound concentration 10.0 uM
# [11] = target: T2, Bone morphogenetic protein receptor type-2 (Homo sapiens) (UniProt Q13873); assay: BMPR2 SGC Tm panel (DSF); details: for ΔTm: Compound concentration 10.0 uM
# T2 sequence (whole entry): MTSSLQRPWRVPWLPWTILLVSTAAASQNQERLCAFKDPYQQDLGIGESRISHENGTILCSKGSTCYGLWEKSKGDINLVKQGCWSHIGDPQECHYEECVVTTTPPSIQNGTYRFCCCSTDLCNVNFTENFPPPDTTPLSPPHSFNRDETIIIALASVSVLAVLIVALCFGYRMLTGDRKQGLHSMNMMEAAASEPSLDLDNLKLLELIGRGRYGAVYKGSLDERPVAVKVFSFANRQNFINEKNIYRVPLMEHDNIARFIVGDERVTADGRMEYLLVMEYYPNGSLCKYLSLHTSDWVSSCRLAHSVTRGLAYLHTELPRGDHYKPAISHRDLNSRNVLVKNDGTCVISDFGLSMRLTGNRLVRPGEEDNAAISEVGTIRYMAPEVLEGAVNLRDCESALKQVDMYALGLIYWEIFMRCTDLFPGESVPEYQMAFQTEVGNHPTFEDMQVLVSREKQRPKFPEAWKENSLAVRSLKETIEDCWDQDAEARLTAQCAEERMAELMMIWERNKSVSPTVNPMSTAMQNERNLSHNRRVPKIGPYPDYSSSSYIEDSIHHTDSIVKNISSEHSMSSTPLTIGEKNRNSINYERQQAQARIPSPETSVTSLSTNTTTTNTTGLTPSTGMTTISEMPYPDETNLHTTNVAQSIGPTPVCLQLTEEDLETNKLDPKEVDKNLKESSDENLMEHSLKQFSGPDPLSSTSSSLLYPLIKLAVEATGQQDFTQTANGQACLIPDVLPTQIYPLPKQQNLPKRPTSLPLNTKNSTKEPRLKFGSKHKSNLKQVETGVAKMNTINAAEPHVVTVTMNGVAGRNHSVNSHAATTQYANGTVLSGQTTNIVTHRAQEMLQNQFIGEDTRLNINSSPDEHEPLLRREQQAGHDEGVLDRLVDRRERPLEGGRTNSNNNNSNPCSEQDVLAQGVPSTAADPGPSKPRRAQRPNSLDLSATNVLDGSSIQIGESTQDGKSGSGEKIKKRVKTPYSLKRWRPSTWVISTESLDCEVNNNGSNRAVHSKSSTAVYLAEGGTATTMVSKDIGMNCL
# [12] = target: MAP/microtubule affinity-regulating kinase 3 (Homo sapiens) (UniProt P27448); assay: MARK3 SGC Tm panel (DSF); details: for ΔTm: Compound concentration 10.0 uM
# [13] = target: 5-hydroxytryptamine receptor 7 (Homo sapiens) (UniProt P34969); details: Compound concentration 10.0 uM
# 5-hydroxytryptamine receptor 7 (Homo sapiens), sequence (P34969 whole entry): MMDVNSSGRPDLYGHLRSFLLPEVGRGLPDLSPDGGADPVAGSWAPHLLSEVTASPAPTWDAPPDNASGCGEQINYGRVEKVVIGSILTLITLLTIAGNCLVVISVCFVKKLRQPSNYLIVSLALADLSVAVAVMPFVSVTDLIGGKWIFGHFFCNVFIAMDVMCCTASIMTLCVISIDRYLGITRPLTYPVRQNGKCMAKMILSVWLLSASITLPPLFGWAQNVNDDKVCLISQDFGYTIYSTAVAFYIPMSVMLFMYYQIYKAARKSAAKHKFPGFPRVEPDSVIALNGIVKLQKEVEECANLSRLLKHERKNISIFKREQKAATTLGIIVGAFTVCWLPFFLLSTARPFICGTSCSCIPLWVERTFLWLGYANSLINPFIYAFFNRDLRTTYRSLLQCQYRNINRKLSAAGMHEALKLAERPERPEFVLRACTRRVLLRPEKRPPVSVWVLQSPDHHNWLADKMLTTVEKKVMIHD
# MAP/microtubule affinity-regulating kinase 3 (Homo sapiens), sequence (P27448 whole entry, looked up): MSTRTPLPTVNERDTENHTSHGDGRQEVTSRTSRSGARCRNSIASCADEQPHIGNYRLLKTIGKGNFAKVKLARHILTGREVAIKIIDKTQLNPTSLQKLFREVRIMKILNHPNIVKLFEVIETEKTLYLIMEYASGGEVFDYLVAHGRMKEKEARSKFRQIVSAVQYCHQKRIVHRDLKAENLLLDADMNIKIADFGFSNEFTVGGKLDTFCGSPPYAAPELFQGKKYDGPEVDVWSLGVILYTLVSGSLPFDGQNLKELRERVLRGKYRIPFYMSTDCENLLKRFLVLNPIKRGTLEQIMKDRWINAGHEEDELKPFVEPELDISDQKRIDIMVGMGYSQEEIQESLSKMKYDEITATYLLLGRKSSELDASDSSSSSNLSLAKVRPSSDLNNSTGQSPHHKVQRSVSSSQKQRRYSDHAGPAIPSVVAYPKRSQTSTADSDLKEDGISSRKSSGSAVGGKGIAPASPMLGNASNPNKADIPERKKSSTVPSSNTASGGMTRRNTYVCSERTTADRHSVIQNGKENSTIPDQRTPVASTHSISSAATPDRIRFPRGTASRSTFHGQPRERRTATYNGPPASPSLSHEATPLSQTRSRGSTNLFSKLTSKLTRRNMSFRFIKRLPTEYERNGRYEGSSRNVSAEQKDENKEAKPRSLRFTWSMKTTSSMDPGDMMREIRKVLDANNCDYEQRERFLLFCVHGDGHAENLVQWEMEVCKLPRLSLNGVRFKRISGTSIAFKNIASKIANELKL
# Mitogen-activated protein kinase 10 (Homo sapiens), sequence (P53779 whole entry): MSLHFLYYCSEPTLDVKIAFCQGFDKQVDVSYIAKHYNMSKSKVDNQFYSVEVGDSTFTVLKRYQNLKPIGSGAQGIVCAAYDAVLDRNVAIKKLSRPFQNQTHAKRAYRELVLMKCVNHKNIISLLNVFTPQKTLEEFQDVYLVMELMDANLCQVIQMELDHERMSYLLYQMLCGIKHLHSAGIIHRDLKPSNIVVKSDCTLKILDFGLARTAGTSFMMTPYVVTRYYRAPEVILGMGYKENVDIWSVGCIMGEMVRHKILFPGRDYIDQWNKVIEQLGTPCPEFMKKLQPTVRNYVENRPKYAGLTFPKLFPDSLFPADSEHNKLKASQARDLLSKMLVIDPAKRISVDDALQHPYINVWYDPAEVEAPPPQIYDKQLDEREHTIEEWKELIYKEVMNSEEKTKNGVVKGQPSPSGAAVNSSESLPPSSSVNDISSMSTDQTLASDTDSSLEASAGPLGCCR
# Ephrin type-A receptor 2 (Homo sapiens), sequence (P29317 whole entry): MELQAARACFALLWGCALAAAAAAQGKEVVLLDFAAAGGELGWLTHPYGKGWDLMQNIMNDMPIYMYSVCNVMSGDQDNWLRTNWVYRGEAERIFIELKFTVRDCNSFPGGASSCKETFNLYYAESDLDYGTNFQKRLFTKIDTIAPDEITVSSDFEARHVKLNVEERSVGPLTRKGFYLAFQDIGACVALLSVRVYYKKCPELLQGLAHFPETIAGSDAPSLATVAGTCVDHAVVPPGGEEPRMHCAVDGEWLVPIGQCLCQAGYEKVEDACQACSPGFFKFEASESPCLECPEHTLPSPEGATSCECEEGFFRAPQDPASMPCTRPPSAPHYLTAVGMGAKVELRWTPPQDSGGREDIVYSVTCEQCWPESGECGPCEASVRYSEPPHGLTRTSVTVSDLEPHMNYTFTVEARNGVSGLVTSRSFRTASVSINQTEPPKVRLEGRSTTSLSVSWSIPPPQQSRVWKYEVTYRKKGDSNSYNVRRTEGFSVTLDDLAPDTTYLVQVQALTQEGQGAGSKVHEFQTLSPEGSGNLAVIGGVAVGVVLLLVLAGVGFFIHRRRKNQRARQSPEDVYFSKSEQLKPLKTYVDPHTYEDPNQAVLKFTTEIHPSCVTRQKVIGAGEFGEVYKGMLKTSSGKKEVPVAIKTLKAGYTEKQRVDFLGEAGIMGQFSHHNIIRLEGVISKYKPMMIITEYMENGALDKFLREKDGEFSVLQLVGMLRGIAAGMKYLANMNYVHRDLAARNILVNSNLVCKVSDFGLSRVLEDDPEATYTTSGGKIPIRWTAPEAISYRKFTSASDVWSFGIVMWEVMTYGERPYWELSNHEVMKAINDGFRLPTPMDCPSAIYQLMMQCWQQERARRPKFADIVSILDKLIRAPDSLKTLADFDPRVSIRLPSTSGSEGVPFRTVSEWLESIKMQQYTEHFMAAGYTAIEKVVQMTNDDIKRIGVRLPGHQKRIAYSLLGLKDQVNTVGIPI
# Mitogen-activated protein kinase 8 (Homo sapiens), sequence (P45983 whole entry): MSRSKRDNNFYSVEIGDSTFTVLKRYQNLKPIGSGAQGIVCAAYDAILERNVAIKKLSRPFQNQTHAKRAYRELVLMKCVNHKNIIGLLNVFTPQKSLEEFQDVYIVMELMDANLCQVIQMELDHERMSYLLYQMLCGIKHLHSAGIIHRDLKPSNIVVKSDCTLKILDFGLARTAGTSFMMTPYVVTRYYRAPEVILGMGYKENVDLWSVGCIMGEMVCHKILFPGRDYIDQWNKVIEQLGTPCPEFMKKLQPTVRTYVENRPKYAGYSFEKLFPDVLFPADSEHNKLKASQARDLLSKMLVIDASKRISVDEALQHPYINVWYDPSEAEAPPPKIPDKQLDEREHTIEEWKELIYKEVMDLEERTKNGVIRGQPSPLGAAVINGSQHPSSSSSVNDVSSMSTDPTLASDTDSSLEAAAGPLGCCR
# Muscarinic acetylcholine receptor M2 (Homo sapiens), sequence (P08172 whole entry): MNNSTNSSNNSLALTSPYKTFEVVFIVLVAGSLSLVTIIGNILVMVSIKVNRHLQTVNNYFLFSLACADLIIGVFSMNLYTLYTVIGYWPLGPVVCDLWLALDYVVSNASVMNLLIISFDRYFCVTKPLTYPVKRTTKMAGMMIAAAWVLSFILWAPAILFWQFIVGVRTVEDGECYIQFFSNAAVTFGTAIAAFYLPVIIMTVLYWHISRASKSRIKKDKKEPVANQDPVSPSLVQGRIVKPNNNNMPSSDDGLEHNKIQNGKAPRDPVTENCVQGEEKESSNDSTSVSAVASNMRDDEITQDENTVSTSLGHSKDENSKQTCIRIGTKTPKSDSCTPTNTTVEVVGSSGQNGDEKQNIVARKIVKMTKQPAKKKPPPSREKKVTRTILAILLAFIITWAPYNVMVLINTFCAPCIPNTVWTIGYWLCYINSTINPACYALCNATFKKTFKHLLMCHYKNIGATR
# Kappa-type opioid receptor (Homo sapiens), sequence (P41145 whole entry): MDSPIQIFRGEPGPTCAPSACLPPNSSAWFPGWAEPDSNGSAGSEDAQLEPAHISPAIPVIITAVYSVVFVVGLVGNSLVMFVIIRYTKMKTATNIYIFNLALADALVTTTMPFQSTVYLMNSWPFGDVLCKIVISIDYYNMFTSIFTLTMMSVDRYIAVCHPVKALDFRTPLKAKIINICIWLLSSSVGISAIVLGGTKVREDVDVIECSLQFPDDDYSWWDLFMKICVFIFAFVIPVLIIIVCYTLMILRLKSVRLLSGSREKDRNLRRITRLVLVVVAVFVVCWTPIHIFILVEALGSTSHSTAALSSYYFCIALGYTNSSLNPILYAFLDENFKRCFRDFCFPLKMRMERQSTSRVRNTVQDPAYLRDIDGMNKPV
# 5-hydroxytryptamine receptor 1B (Homo sapiens), sequence (P28222 whole entry): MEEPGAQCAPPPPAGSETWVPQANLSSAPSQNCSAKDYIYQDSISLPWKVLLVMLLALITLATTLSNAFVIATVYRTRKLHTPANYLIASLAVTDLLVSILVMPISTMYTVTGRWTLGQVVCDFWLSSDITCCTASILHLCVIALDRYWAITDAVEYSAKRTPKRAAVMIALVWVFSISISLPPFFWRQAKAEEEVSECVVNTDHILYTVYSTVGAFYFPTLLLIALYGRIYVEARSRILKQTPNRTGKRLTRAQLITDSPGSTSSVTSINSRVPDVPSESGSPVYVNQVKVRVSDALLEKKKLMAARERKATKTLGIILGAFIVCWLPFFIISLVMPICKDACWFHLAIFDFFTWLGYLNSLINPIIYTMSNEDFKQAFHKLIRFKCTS
Compound,delta Tm Staurosporine positive control [1],ΔTm [1],delta Tm Staurosporine positive control [2],ΔTm [2],inhibition [3] [%],inhibition [4] [%],delta Tm Staurosporine positive control [5],ΔTm [5],delta Tm Staurosporine positive control [6],ΔTm [6],delta Tm Staurosporine positive control [7],ΔTm [7],delta Tm Staurosporine positive control [8],ΔTm [8],inhibition [9] [%],delta Tm Staurosporine positive control [10],ΔTm [10],delta Tm Staurosporine positive control [11],ΔTm [11],delta Tm Staurosporine positive control [12],further results
C[C@H](NC(=O)c1cn(C2(C#N)CC2)cn1)C(=O)Nc1nc(-c2cccc(-c3ccn(C)n3)c2)cs1,8.57,0.258,1.03,-0.303,4.84,27.4,8.8,-0.371,7.41,1.8,9.3,-0.834,7.67,0.2,16.3,7.87,0.458,2.89,0.38,19.1,ΔTm [12]: 1.73; inhibition [13]: 23%
COC[C@H](NC(=O)c1ccn(S(C)(=O)=O)c1)C(=O)Nc1nc(-c2cccc(-c3ccn(C)n3)c2)cs1,8.57,0.181,1.03,-0.843,10.7,17.6,8.8,-1.35,7.41,0.595,9.3,-0.76,7.67,0.202,6.19,7.87,0.206,2.89,0.371,19.1,ΔTm [12]: 1.12; inhibition [13]: 3.33%
